Row | Compound | melting point
1 | COc1ccccc1-n1c(=O)[nH]c2c(C(N)=O)nc(-c3ccc4nc[nH]c4c3)nc21 [Compound 91, 2-(1H-Benzo[d]imidazol-6-yl)-9-(2-methoxyphenyl)-8-oxo-8,9-dihydro-7H-purine-6-carboxamide] | 306 °C
2 | CC(C)c1ccccc1-n1c(=O)[nH]c2c(C(N)=O)nc(-c3ccc(-n4ccnc4)cc3)nc21 [Compound 131, 2-(4-(1H-Imidazol-1-yl)phenyl)-9-(2-isopropylphenyl)-8-oxo-8,9-dihydro-7H-purine-6-carboxamide] | 232 °C
3 | NC(=O)c1nc(-c2cccc(O)c2)nc2c1[nH]c(=O)n2[C@H]1CC[C@H](O)CC1 [Compound 49, 9-(trans-4-Hydroxycyclohexyl)-2-(3-hydroxyphenyl)-8-oxo-8,9-dihydro-7H-purine-6-carboxamide] | 373 to 375 °C
4 | NC(=O)c1nc(-c2cccc(O)c2)nc2c1[nH]c(=O)n2-c1ccccc1-c1ccccc1 [Compound 119, 9-(Biphenyl-2-yl)-2-(3-hydroxyphenyl)-8-oxo-8,9-dihydro-7H-purine-6-carboxamide] | 293 to 296 °C
5 | NC(=O)c1nc(-c2cccc(O)c2)nc2c1[nH]c(=O)n2CC1CCCCC1 [Compound 140, 9-(Cyclohexylmethyl)-2-(3-hydroxyphenyl)-8-oxo-8,9-dihydro-7H-purine-6-carboxamide] | 368 to 370 °C
6 | COc1ccccc1-n1c(=O)[nH]c2c(C(N)=O)nc(-c3cccc(C(=O)O)c3)nc21 [Compound 62, 3-(6-Carbamoyl-9-(2-methoxyphenyl)-8-oxo-8,9-dihydro-7H-purin-2-yl)benzoic acid] | 348 to 350 °C
7 | COc1ccccc1-n1c(=O)[nH]c2c(C(N)=O)nc(-c3ccc4nc(C(F)(F)F)[nH]c4c3)nc21 [Compound 117, 9-(2-Methoxyphenyl)-8-oxo-2-(2-(trifluoromethyl)-1H-benzo[d]imidazol-6-yl)-8,9-dihydro-7H-purine-6-carboxamide] | 220 to 222 °C
8 | NC(=O)c1nc(-c2cnccc2Cl)nc2c1[nH]c(=O)n2-c1ccccc1C(F)(F)F [Compound 109, 2-(4-Chloropyridin-3-yl)-8-oxo-9-(2-(trifluoromethyl)phenyl)-8,9-dihydro-7H-purine-6-carboxamide] | 244 to 248 °C (dec.)
9 | NC(=O)c1nc(-c2cnc3nc[nH]c3c2)nc2c1[nH]c(=O)n2-c1ccccc1C(F)(F)F [Compound 137, 2-(1H-Imidazo[4,5-b]pyridin-6-yl)-8-oxo-9-(2-(trifluoromethyl)phenyl)-8,9-dihydro-7H-purine-6-carboxamide] | 320 °C
10 | COc1ccc(-n2c(=O)[nH]c3c(C(N)=O)nc(-c4cccc(O)c4)nc32)c(F)c1 [Compound 155, 9-(2-Fluoro-4-methoxyphenyl)-2-(3-hydroxyphenyl)-8-oxo-8,9-dihydro-7H-purine-6-carboxamide] | > 260 °C
11 | NC(=O)c1nc(-c2cccnc2)nc2c1[nH]c(=O)n2[C@H]1CC[C@H](O)CC1 [Compound 48, 9-(trans-4-Hydroxycyclohexyl)-8-oxo-2-(pyridin-3-yl)-8,9-dihydro-7H-purine-6-carboxamide] | 331 to 333 °C
12 | COc1ccccc1-n1c(=O)[nH]c2c(C(N)=O)nc(N[C@H]3CC[C@H](O)CC3)nc21 [Compound 108, 2-(trans-4-Hydroxycyclohexylamino)-9-(2-methoxyphenyl)-8-oxo-8,9-dihydro-7H-purine-6-carboxamide] | 165 to 167 °C
13 | NC(=O)c1nc(-c2cccc(O)c2)nc2c1[nH]c(=O)n2C1CCOCC1 [Compound 151, 2-(3-Hydroxyphenyl)-8-oxo-9-(tetrahydro-2H-pyran-4-yl)-8,9-dihydro-7H-purine-6-carboxamide] | 361 to 363 °C
14 | COc1ccccc1-n1cnc2c(C(N)=O)nc(Nc3cccc(O)c3)nc21 [Compound 51, 2-(3-Hydroxyphenylamino)-9-(2-methoxyphenyl)-9H-purine-6-carboxamide] | 155 to 157 °C

From patent publication US7968556B2, “Heteroaryl compounds, compositions thereof, and methods of treatment therewith” (Signal Pharmaceuticals, LLC, priority 2006, dated 2011)
